# Earlier results as cited in US11599023B2, “Photosensitive resin composition, organic EL element barrier rib, and organic EL element” (SHOWA DENKO K.K., priority 2018, dated 2023).
# Where two headings read alike, the source gives them in different places.
# Tests used:
# [1] = not given; remark: listed apart in the source
# [2] = Table 1, at 25° C., cited in Scifinder
# [3] = Table 2, of the low molecular weight organic compound (B), cited in Scifinder
# [4] = Table 1, at 20° C. and 1 atm, cited in Scifinder
# [5] = at 20° C. and 1 atm, SciFinder database
Structure (SMILES),pKa [2],pKa [3],"pKa (at 25° C., SciFinder database)","Molar volume [1, 4]","Molar volume [1, 3]","Molar volume [1, 5]"
"O=C(O)c1ccc(O)c(O)c1O [2,3,4-Trihydroxybenzoic acid]",3.30,3.30,3.3,97.2 cm^3/mol,97.2 cm^3/mol,97.2 cm^3/mol
O=C(O)c1cc(O)c(O)c(O)c1 [Gallic acid],–,–,–,97.2 cm^3/mol,97.2 cm^3/mol,97.2 cm^3/mol
"O=C(c1ccc(O)cc1)c1ccc(O)c(O)c1O [2,3,4,4′-Tetrahydroxybenzophenone, 2,3,4,4′-Tetrahydroxybenzophenone, reference compound]",7.38,7.38,–,161.2 cm^3/mol,161.2 cm^3/mol,–
"O=C(O)c1ccc(O)cc1O [2,4-Dihydroxybenzoic acid]",3.32,3.32,3.32,98.8 cm^3/mol,98.8 cm^3/mol,98.8 cm^3/mol
"O=C1OC(c2ccc(O)cc2)(c2ccc(O)cc2)c2ccccc21 [Phenolphthalein, reference compound]",9.23,9.23,–,229.7 cm^3/mol,229.7 cm^3/mol,–
O=C(O)c1ccccc1C(=O)O [phthalic acid],–,–,–,–,–,114.4 cm^3/mol
"Oc1ccc(O)c(O)c1 [1,2,4-Benzenetriol]",9.58,9.58,9.58,84.7 cm^3/mol,84.7 cm^3/mol,84.7 cm^3/mol
O=C(O)c1ccc(C(=O)O)cc1 [terephthalic acid],–,–,–,–,–,114.4 cm^3/mol
Oc1cc(O)cc(O)c1 [Phloroglucinol],9.06,9.06,9.06,84.7 cm^3/mol,84.7 cm^3/mol,84.7 cm^3/mol
"O=C(O)c1cc(O)ccc1O [2,5-Dihydroxybenzoic acid]",–,–,–,98.8 cm^3/mol,98.8 cm^3/mol,98.8 cm^3/mol
"O=C(O)c1cc(O)cc(O)c1 [3,5-Dihydroxybenzoic acid]",3.96,3.96,3.96,98.8 cm^3/mol,98.8 cm^3/mol,98.8 cm^3/mol
"O=C(O)c1cccc(O)c1O [2,3-Dihydroxybenzoic acid]",2.96,2.96,2.96,98.8 cm^3/mol,98.8 cm^3/mol,98.8 cm^3/mol
"O=C(O)c1cc(C(=O)O)c(C(=O)O)cc1C(=O)O [Pyromellitic acid, reference compound]",–,–,–,139.5 cm^3/mol,139.5 cm^3/mol,–
O=C(O)c1ccc(C(=O)O)c(C(=O)O)c1 [trimellitic acid],–,–,–,–,–,127.0 cm^3/mol
Oc1cccc(O)c1O [Pyrogallol],–,–,–,84.7 cm^3/mol,84.7 cm^3/mol,84.7 cm^3/mol
Oc1ccccc1O [catechol],–,–,–,–,–,86.2 cm^3/mol
"O=C(O)c1ccccc1C(c1ccc(O)cc1)c1ccc(O)cc1 [Phenolphthalin, reference compound]",3.96,3.96,–,242.0 cm^3/mol,242.0 cm^3/mol,–
O=C(O)c1cc(C(=O)O)cc(C(=O)O)c1 [trimesic acid],–,–,–,–,–,127.0 cm^3/mol
Oc1ccc(O)cc1 [hydroquinone],–,–,9.58,–,–,86.2 cm^3/mol
O=C(O)c1cccc(C(=O)O)c1C(=O)O [Hemimellitic acid],–,–,–,127.0 cm^3/mol,127.0 cm^3/mol,127 cm^3/mol
"Oc1ccc(O)c2c(O)c3ccccc3c(O)c12 [Leucoquinizarin, reference compound]",8.11,8.11,–,151.3 cm^3/mol,151.3 cm^3/mol,–
Oc1cccc(O)c1 [resorcinol],–,–,9.45,–,–,86.2 cm^3/mol
"CCCOC(=O)c1cc(O)c(O)c(O)c1 [Propyl gallate, reference compound]",–,–,–,155.6 cm^3/mol,155.6 cm^3/mol,–
O=C(O)c1cccc(C(=O)O)c1 [isophthalic acid],–,–,–,–,–,114.4 cm^3/mol
